Results on ten compounds are retold here after ChEMBL document CHEMBL4840357, “Functionalized Dioxonaphthoimidazoliums: A Redox Cycling Chemotype with Potent Bactericidal Activities against Mycobacterium tuberculosis” (J Med Chem, 2021).

The subject of one data set is Vero. The experiment in a line: Cytotoxicity against African green monkey Vero cells assessed as reduction in cell viability incubated for 48 hrs by CellTiter 96 aqueous one solution reagent based assay. The note with it: Chlorocebus sabaeus.
The nature of data set [1]: Selectivity index, ratio of IC50 for African green monkey Vero cells to MIC50 for Mycobacterium tuberculosis H37Rv ATCC 27294. Format: toxicity. The note with it: read-out: Selectivity Index.
Data set [2] has as its system Mycobacterium tuberculosis. Format: functional, organism-based. The conditions noted are these: H37Rv ATCC 27294, time 7.0 day.
In data set [3] the test system is Mycobacterium tuberculosis. Format: functional. The conditions noted are these: H37Rv ATCC 27294, 168 h, time 7 day, read-out: MBC99.9.
In data set [4] the test system is Mycobacterium tuberculosis. Type of data set: functional. The conditions noted are these: H37Rv ATCC 27294, 168 h, time 7 day.
Data set [5] can be described thus: Oral bioavailability in Swiss albino mouse at 50 mg/kg measured upto 24 hrs by HPLC-LCMS analysis. Format: ADME, organism-based. The conditions noted are these: in vivo.
Data set [6] is described as follows: Permeability of compound incubated for 16 hrs by PAMPA. Format: ADME. For orientation: PAMPA measures passive passage across an artificial lipid membrane.
Data set [7] is described as follows: Aqueous solubility of compound at pH 7.4. Type of data set: physicochemical. The conditions noted are these: buffer.
The nature of data set [8]: Volume of distribution in Swiss albino mouse at 50 mg/kg, po or 1 mg/kg, iv measured upto 24 hrs by HPLC-LCMS analysis. The note with it: in vivo. Type of data set: ADME, organism-based.
Data set [9] in a line: Mutagenicity in Salmonella typhimurium TA98 at 1.5 to 64 ug in presence of S9 fraction by ames test. Format: toxicity, subcellular, Salmonella enterica subsp. enterica serovar Typhimurium. The conditions noted are these: dose 1.5-64 µg.
A short description of data set [10]: Half life in Swiss albino mouse at 50 mg/kg, po or 1 mg/kg, iv measured upto 24 hrs by HPLC-LCMS analysis. Type of data set: ADME, organism-based. The note with it: in vivo.
Data set [11] is described as follows: Mutagenicity in Salmonella typhimurium TA98 at 1.5 to 64 ug in absence of S9 fraction by ames test. Format: toxicity, Salmonella enterica subsp. enterica serovar Typhimurium. The note with it: in vivo; dose 1.5-64 µg.
A short description of data set [12]: Clearance in Swiss albino mouse at 50 mg/kg, po or 1 mg/kg, iv measured upto 24 hrs by HPLC-LCMS analysis. Type of data set: ADME, organism-based. The conditions noted are these: in vivo.
Data set [13] in a line: Mutagenicity in Salmonella typhimurium TA100 at 1.5 to 64 ug in absence of S9 fraction by ames test. Type of data set: toxicity, Salmonella enterica subsp. enterica serovar Typhimurium. The note with it: in vivo; dose 1.5-64 µg.
Data set [14] in a line: Mutagenicity in Salmonella typhimurium TA100 at 1.5 to 64 ug in presence of S9 fraction by ames test. Type of data set: toxicity, subcellular, Salmonella enterica subsp. enterica serovar Typhimurium. The conditions noted are these: dose 1.5-64 µg.
Data set [15] in a line: Metabolic stability in rat microsomes assessed as half life preincubated for 5 mins followed by NADPH addition and measured upto 45 mins by LC-MS/MS analysis. Format: ADME, Microsome. The note with it: time <=50 min.
Data set [16] deals with Mycolicibacterium smegmatis. The experiment in a line: Induction of oxygen consumption in Mycobacterium smegmatis mc24517 inverted membrane vesicles. Type of data set: functional.
Data set [17] relates to Mycolicibacterium smegmatis. Put plainly: Induction of pH gradient dissipation in Mycobacterium smegmatis mc24517 inverted membrane vesicles at 1 to 2 uM. Type of data set: functional. The note with it: Membrane vesicle, dose 1-2 µM.
For data set [18], the system named is Mycolicibacterium smegmatis. Put plainly: Induction of NADH oxidation in Mycobacterium smegmatis mc24517 inverted membrane vesicles. Format: functional, Membrane vesicle.
Data set [19] concerns Mycolicibacterium smegmatis. The experiment in a line: Induction of hydrogen […] production in Mycobacterium smegmatis mc24517 inverted membrane vesicles. Type of data set: functional.

pEC50, pIC50: −log10 of the molar value. In brackets after ≈: the same amount, converted by molar mass. Activity calls are given as the source filed them. The calls are words filed in the database; no cut-off is given here.

With `CCCCCCCn1c2c([n+](CCCCC)c1C)C(=O)c1ccccc1C2=O.[Br-]`, the pIC50 in the data set on Vero is 4.70. Moreover, the selectivity ratio in [1] is 26. Moreover, the outcome in [2] was Active. Further, in data set [3], the MBC was found to be 6.3 µM. Also, in [4], the MIC50 came to 0.77 µM and the MIC90 stood at 1.2 µM.
On to `CCCCCCn1c2c([n+](CCCCCC)c1C)C(=O)c1ccccc1C2=O`, for which the negative-log IC50 (pIC50) with Vero was 4.85. Also, in [1], the selectivity ratio came to 21. Also, the MBC in data set [3] amounted to 6.3 µM. Further, in data set [4], the MIC50 turned out to be 0.67 µM and the MIC90 is 1.5 µM.
Take `CCCCCC[n+]1c2c(n(CC(C)C)c1C)C(=O)c1ccccc1C2=O`: in data set [4], the MIC50 came to 4 µM and the MIC90 is 6 µM.
Take `CCCCn1c2c([n+](C3CCC4(CCCCC4)CC3)c1C)C(=O)c1ccccc1C2=O.[Br-]`: in data set [5], the bioavailability came out at 1%. The permeability entry in data set [6] is on record as “Not Active”. In data set [7], this compound registered a solubility of 118 µM. The pIC50 in the data set with Vero was 4.82. The same compound gave a Vd in data set [8] of 27 L/kg. The Activity result in data set [9], in [11], in data set [13] and in data set [14] was “Non-Toxic” in each case. In addition, the selectivity ratio in data set [1] is 54. The results for the half-life in data set [10] and in data set [15] were 7 h and 0.333 h, respectively. The clearance in data set [12] stood at 38 mL/min/kg. In addition, the MBC in data set [3] was 1.6 µM. The MIC50 in data set [4] was 0.28 µM. In data set [4], this compound showed an MIC90 of 0.53 µM.
In data set [4], `NNC(=O)c1ccncc1` [ISONIAZID] displayed an MIC50 of 1.6 µM (≈ 0.219 µg/mL) and an MIC90 of 3.2 µM (≈ 0.439 µg/mL).
Regarding `CCCCCCCCn1c2c([n+](C3CCC4(CCCCC4)CC3)c1C)C(=O)c1ccccc1C2=O`, the pIC50 in the data set with Vero is 5.30. The selectivity ratio in data set [1] was determined as 17. Also, the MBC in [3] was 1.2 µM. Also, in [4], the MIC50 was 0.3 µM and the MIC90 turned out to be 0.4 µM.
Consider `CCCCCCn1c2c([n+](C3CCC4(CCCCC4)CC3)c1C)C(=O)c1ccccc1C2=O`, for which the pIC50 with Vero was 5.20. The selectivity ratio in [1] was found to be 21. For the same compound, in data set [3], the MBC came to 1.6 µM. Also, in [4], the MIC50 was 0.3 µM and the MIC90 is 0.4 µM.
As to `CCCCCCCCn1c2c([n+](CCCC)c1C)C(=O)c1ccccc1C2=O.[Br-]`, the bioavailability in data set [5] came to 1%. Moreover, the permeability entry in data set [6] is reported as “Not Active”. In data set [7], this compound had a solubility of 118 µM. Moreover, the pIC50 in the data set on Vero is 4.62. In data set [8], the Vd came to 27 L/kg. Also, the Activity entry in [9], in data set [11], in data set [13] and in data set [14] was “Non-Toxic” in each case. In addition, the “fold change (FC)” value worked out at 7 in [16] and 4 in data set [19]. In addition, the result in data set [17] and in data set [2] was Active. The selectivity ratio in [1] came to 29. For the same compound, the half-life in data set [10] was 7 h; in data set [15], 0.333 h. Moreover, in [18], the pEC50 was 6.60. This compound also registered a clearance in data set [12] of 38 mL/min/kg. For the same compound, in [3], the MBC stood at 6.3 µM. For the same compound, the MIC50 in data set [4] stood at 0.82 µM. Besides, the MIC90 in data set [4] came out at 1.5 µM.
With `CC(C)/N=c1\cc2n(-c3ccc(Cl)cc3)c3ccccc3nc-2cc1Nc1ccc(Cl)cc1` [CLOFAZIMINE], in data set [4], the MIC50 is 0.2 µM (≈ 0.0947 µg/mL) and the MIC90 came to 0.8 µM (≈ 0.379 µg/mL).
In [4], `CCCCCCCC[n+]1c2c(n(CC(C)C)c1C)C(=O)c1ccccc1C2=O` had an MIC50 of 2 µM and an MIC90 of 3 µM.

A word on the pIC50: it is the IC50 on a negative log10 scale, so that one unit is a factor of ten. Usually MIC50 stands for the lowest concentration that inhibits either 50% of growth or 50% of the strains tested, depending on the study. As usually defined, the MIC90 is the lowest concentration that inhibits either 90% of growth or 90% of the strains tested, depending on the study. What is called bioavailability is dose-corrected exposure relative to a reference, in per cent. One may read the solubility as the dissolved amount per volume that the medium holds. Usually half-life stands for how long it takes for the measured level to halve. The term pEC50 denotes the negative decadic logarithm of the EC50, by convention in mol/L.
